{"source": "patent US20260294770A1", "about": "“FORMULATIONS OF NARINGENIN” (DEBUT BIOTECHNOLOGY, INC., priority 2023, published 2026)", "key": {"HSPA1A": {"system": "HSPA1A", "test": "Downregulation of gene expression and/or activity, 1% naringenin: HSPA1A", "source_text": "(§1) In certain embodiments, administration of a composition comprising naringenin leads to up-regulation of LCE5A, KRT77, ALOXE3, KRT1, HPGD, MUCL1, CASP14, WFDC12, KRT10, DNASE1L2, IL37, SERPINB12, HAL, UPK1A, CALML5, LCE2B, and/or MIR205. In certain embodiments, administration of a composition comprising naringenin leads to down-regulation of CCL11, CSF2, IL23A, IL11, BMP6, IL13RA2, C2CD4A, NR4A2, C2CD4B, FGF2, FARP4, GDF15, THBS1, HSPA1A, PTGS2, and/or DKK1. Tables 10 and 11 provide data for upregulation and downregulation respectively of certain genes after administration of compositions comprising 1% naringenin.\nHeat shock protein family A (Hsp70) member 1A (HSPA1A) plays a role in clearing of aged cells and/or senolytic effect. In certain embodiments, the administration of compositions comprising naringenin leads to downregulation of expression and/or activity of HSPA1A. […] In certain embodiments, this may also lead to anti-aging effect for the skin. In certain embodiments, the administration of composition comprising naringenin results in at least about 2 to about 10-fold downregulation of expression and/or activity of HSPA1A. In certain embodiments, the administration of composition comprising naringenin results in at least about five (5) fold downregulation of expression and/or activity of HSPA1A."}, "IL-6": {"system": "IL-6", "test": "IL-6 concentration in stimulated (stressed) normal human epidermal keratinocytes (ELISA)", "type": "cell-based", "conditions": "for IL-6 concentration: LPS + Poly:IC stressed NHEK, stimulated control 1124.6", "source_text": "Normal Human Epidermal Keratinocytes (NHEK) were stressed with a cocktail of lipopolysaccharide (LPS) and Polyinosinic-polycytidylic acid sodium salt (Poly:IC), external aggressors capable of inducing an inflammatory response. Stressed cells were subsequently treated with test articles and reduction in inflammatory markers was measuring by ELISA. Tables 19 and 20, provided below, discloses data for TNFα and IL-6 concentrations, respectively, in stressed normal human epidermal keratinocytes."}, "FABP4": {"system": "FABP4", "test": "Downregulation of gene expression and/or activity, 1% naringenin: FABP4", "source_text": "as §1\nFatty acid binding protein 4 (FABP4) plays a role in metabolic inflammation from the fat tissue. FABP4 acts at the interface of metabolic and inflammatory pathways in adipocytes and macrophages and plays important roles in the development of insulin resistance, diabetes mellitus, and atherosclerosis. In certain embodiments, downregulation of FABP4 leads to reduced metabolic inflammation from the fat tissue signaling. In certain embodiments, the administration of composition comprising naringenin results in at least about 2 to about 10-fold downregulation of expression and/or activity of FABP4. In certain embodiments, the administration of composition comprising naringenin results in at least about five (5) fold downregulation of expression and/or activity of FABP4."}, "DKK1": {"system": "DKK1", "test": "Downregulation of gene expression and/or activity, 1% naringenin: DKK1", "conditions": "negative = downregulation", "source_text": "as §1"}, "superoxide dismutase": {"system": "superoxide dismutase", "conditions": "consumed orally; cited from earlier work"}, "PTGS2": {"system": "PTGS2", "test": "Downregulation of gene expression and/or activity, 1% naringenin: PTGS2", "source_text": "as §1\nProstaglandin-endoperoxide synthase 2 (PTGS2) plays a role in the production of signaling molecules that are involved in the inflammatory response. For example, PTGS2 is involved in the conversion of arachidonic acid to prostaglandin H2, an important precursor of prostacyclin, which is expressed in inflammation. In certain embodiments, downregulation of PTGS2 leads to reduction in production of signaling molecules leading to inflammation. Thus, the downregulation of PTGS2 leads to reduced inflammation. In certain embodiments, the administration of composition comprising naringenin results in at least about 2 to about 10-fold downregulation of expression and/or activity of PTGS2. […]"}, "IL23A": {"system": "IL23A", "test": "Downregulation of gene expression and/or activity, 1% naringenin: IL23A", "source_text": "as §1\nInterleukin 23A (1L23A) plays a role in the inflammatory pathway. In certain embodiments of the invention, downregulation of IL23A leads to an anti-inflammatory activity. In certain embodiments, the administration of composition comprising naringenin results in at least about 10 to about 20-fold downregulation of expression and/or activity of 1L23A. In certain embodiments, the administration of composition comprising naringenin results in at least about fifteen (15) fold downregulation of expression and/or activity of IL23A."}, "psoriasis models": {"system": "psoriasis models", "conditions": "cited from earlier work"}, "NR4A2": {"system": "NR4A2", "test": "Downregulation of gene expression and/or activity, 1% naringenin: NR4A2", "source_text": "as §1\nNuclear receptor subfamily 4 group A member 2 (NR4A2) plays a role in the inflammatory response. In certain embodiments, downregulation of NR4A2 results in reduction in inflammation. In certain embodiments, the administration of composition comprising naringenin results in at least about 5 to about 15-fold downregulation of expression and/or activity of NR4A2. In certain embodiments, the administration of composition comprising naringenin results in at least about ten (10) fold downregulation of expression and/or activity of NR4A2."}, "[1]": {"system": "HaCaT immortalized keratinocytes", "conditions": "10 μM; cited from earlier work"}, "CASP14": {"system": "CASP14", "test": "Upregulation of gene expression and/or activity, 1% naringenin: CASP14", "source_text": "as §1\nCysteine-aspartic acid protease 14 (CASP14) plays a role in keratinocyte terminal differentiation, which is important for the formation of the skin barrier. In certain embodiments, administration of compositions comprising naringenin leads to upregulation of CASP14. In certain embodiments, this upregulation of CASP14 leads to the improved skin barrier formation. In certain embodiments, the administration of composition comprising naringenin results in at least about 5 to about 20-fold upregulation of expression and/or activity of CASP14. In certain embodiments, the administration of composition comprising naringenin results in at least about ten (10) fold upregulation of expression and/or activity of CASP14."}, "IL37": {"system": "IL37", "test": "Upregulation of gene expression and/or activity, 1% naringenin: IL37", "source_text": "as §1"}, "MUCL1": {"system": "MUCL1", "test": "Upregulation of gene expression and/or activity, 1% naringenin: MUCL1", "source_text": "as §1"}}}
{"smiles": "O=C1C[C@@H](c2ccc(O)cc2)Oc2cc(O)cc(O)c21", "note": "[naringenin, (2S)-5,7-Dihydroxy-2-(4-hydroxyphenyl)-2,3-dihydro-4H-1-benzopyran-4-one]", "values": [{"measurement": "fold downregulation in expression and/or activity of HSPA1A", "setting": "HSPA1A", "value": "~6", "unit": "fold"}, {"measurement": "Fold-increase (downregulation table) HSPA1A", "setting": "HSPA1A; negative = downregulation", "value": "−6", "unit": "fold"}, {"measurement": "IL-6 concentration", "setting": "IL-6; 0.0001% naringenin, p-value 0.0001", "value": 395.8, "unit": "pg/mL"}, {"measurement": "IL-6 concentration", "setting": "IL-6; 0.0045% naringenin, p-value 0.0029", "value": 42.0, "unit": "pg/mL"}, {"measurement": "IL-6 concentration", "setting": "IL-6; 0.007% naringenin, p-value 0.0030", "value": 50.0, "unit": "pg/mL"}, {"measurement": "IL-6 concentration", "setting": "IL-6; 0.01% naringenin, p-value 0.0035", "value": 76.6, "unit": "pg/mL"}, {"measurement": "inhibition at 0.0001 %", "setting": "IL-6; Homo sapiens, NHEK, 0.0001% naringenin, vs stimulated control, p-value 0.0001, read-out: IL-6 % Reduction vs Treated", "value": 64.8, "unit": "%"}, {"measurement": "inhibition at 0.0045 %", "setting": "IL-6; Homo sapiens, NHEK, 0.0045% naringenin, vs stimulated control, p-value 0.0029, read-out: IL-6 % Reduction vs Treated", "value": 96.3, "unit": "%"}, {"measurement": "inhibition at 0.007 %", "setting": "IL-6; Homo sapiens, NHEK, 0.007% naringenin, vs stimulated control, p-value 0.0030, read-out: IL-6 % Reduction vs Treated", "value": 95.6, "unit": "%"}, {"measurement": "inhibition at 0.01 %", "setting": "IL-6; Homo sapiens, NHEK, 0.01% naringenin, vs stimulated control, p-value 0.0035, read-out: IL-6 % Reduction vs Treated", "value": 93.2, "unit": "%"}, {"measurement": "Reduction of IL-6 (in words)", "setting": "IL-6; stressed keratinocytes", "value": "to non-stressed levels"}, {"measurement": "fold downregulation in expression and/or activity of FABP4", "setting": "FABP4", "value": "~7", "unit": "fold"}, {"measurement": "Fold-increase (downregulation table) FABP4", "setting": "FABP4; negative = downregulation", "value": "−7", "unit": "fold"}, {"measurement": "Fold-increase (downregulation table) DKK1", "setting": "DKK1", "value": "−5", "unit": "fold"}, {"measurement": "Superoxide dismutase", "setting": "superoxide dismutase", "value": "increase"}, {"measurement": "fold downregulation in expression and/or activity of PTGS2", "setting": "PTGS2", "value": "~6", "unit": "fold"}, {"measurement": "Fold-increase (downregulation table) PTGS2", "setting": "PTGS2; negative = downregulation", "value": "−6", "unit": "fold"}, {"measurement": "fold downregulation in expression and/or activity of IL23A", "setting": "IL23A", "value": "~18", "unit": "fold"}, {"measurement": "Skin barrier restoration", "setting": "psoriasis models", "value": "restoration of skin barrier"}, {"measurement": "fold downregulation in expression and/or activity of NR4A2", "setting": "NR4A2", "value": "~9", "unit": "fold"}, {"measurement": "Fold-increase (downregulation table) NR4A2", "setting": "NR4A2; negative = downregulation", "value": "−9", "unit": "fold"}, {"measurement": "Protection from UVB-induced apoptosis", "setting": "[1]", "value": "protecting HaCaT immortalized keratinocytes from UVB-induced apoptosis"}, {"measurement": "Fold-increase in expression and/or activity of CASP14", "setting": "CASP14", "value": "~11", "unit": "fold"}, {"measurement": "Fold-increase in expression and/or activity of IL37", "setting": "IL37", "value": 11, "unit": "fold"}, {"measurement": "Fold-increase in expression and/or activity of MUCL1", "setting": "MUCL1", "value": 11, "unit": "fold"}]}
